Converted amounts (≈) assume the structure as drawn.
Key:
Plasmodium falciparum = assay: Antimalarial activity against Plasmodium falciparum; type: functional, organism-based
[1] = test system: Human immunodeficiency virus 1; assay: Antiviral activity against HIV1 G9106 infected in human MT2 cells; type: functional, organism-based; details: Human immunodeficiency virus 1, G9106, MT2
[2] = test system: Human immunodeficiency virus 1; assay: Antiviral activity against HIV1 OC100 infected in human CEM-SS cells; type: functional, organism-based; details: Human immunodeficiency virus 1, CEM-SS
[3] = test system: Human immunodeficiency virus 1; assay: Antiviral activity against HIV1 A17 infected in human MT2 cells; type: functional, organism-based; details: Human immunodeficiency virus 1, A17, MT2
[4] = test system: Human immunodeficiency virus 1; assay: Antiviral activity against HIV1 RF infected in human CEM-SS cells; type: functional, organism-based; details: Human immunodeficiency virus 1, RF
CEM-SS = assay: Cytotoxicity against human CEM-SS cells; type: cell-based

IC50 (Plasmodium falciparum) [µg/mL]	EC50 [1] [µM]	EC50 [2] [µM]	EC50 [3] [µM]	EC50 [4] [µM]	Compound	IC50 (CEM-SS) [µM]
2 (≈ 5.08 µM)					COc1cc(O)c(-c2ccc(OC)c3c(O)cc(C)cc23)c2c1[C@@H](C)N[C@H](C)C2 [KORUPENSAMINE E]	
	19	23	18	6	COc1cc(C)cc2c(-c3c(O)cc(O)c4c3C[C@@H](C)N[C@@H]4C)cc(-c3cc(-c4c(O)cc(O)c5c4C[C@@H](C)N[C@@H]5C)c4cc(C)cc(OC)c4c3O)c(O)c12 [MICHELLAMINE A]	
	11	20	10	3	COc1cc(O)c(-c2cc(-c3cc(-c4c(O)cc(O)c5c4C[C@@H](C)N[C@@H]5C)c4cc(C)cc(OC)c4c3O)c(O)c3c(OC)cc(C)cc23)c2c1[C@@H](C)N[C@H](C)C2 [MICHELLAMINE D]	17
	15	11	13	4	COc1cc(C)cc2c(-c3c(O)cc(O)c4c3C[C@H](C)N(C)[C@@H]4C)cc(-c3cc(-c4c(O)cc(O)c5c4C[C@@H](C)N[C@@H]5C)c4cc(C)cc(OC)c4c3O)c(O)c12 [MICHELLAMINE E]	23
	8	9	11	2	COc1cc(O)c(-c2cc(-c3cc(-c4c(O)cc(O)c5c4C[C@@H](C)N[C@@H]5C)c4cc(C)cc(OC)c4c3O)c(O)c3c(OC)cc(C)cc23)c2c1C(C)=N[C@H](C)C2 [MICHELLAMINE F]	188

From ChEMBL document CHEMBL1146434, “Michellamines D-F, new HIV-inhibitory dimeric naphthylisoquinoline alkaloids, and korupensamine E, a new antimalarial monomer, from Ancistrocladus korupensis” (J Nat Prod, 1997)
